Experimental findings from US20250186475A1, “METHODS OF TREATING MEDICAL CONDITIONS USING ISLATRAVIR OR A RELATED COMPOUND” (ROME Therapeutics, Inc., priority 2022, published 2025) are described below.

Common to all, as to format: cell-based
One experiment concerns TE-1 cells. Kind of experiment: Cancer cell viability assay with 3D cell colonies (CellTiter-Glo), TE-1. The conditions noted are these: Homo sapiens, TE-1, 168 h, 7 days. On the procedure: (§1) Ovarian cancer cell line SK-OV-3 cells were cultured in McCoy's 5a media containing 10% FBS. Ovarian cancer cell line OVCAR-8 cells were cultured in RPMI media containing 10% FBS. Additional cancer cell lines were cultured in the following media: • Ovarian cancer SW756 cells—L-15 (100% air)+10% FBS • Esophageal cancer TE-1 cells—RPMI-1640+10% FBS • Esophageal cancer KYSE-410 cells—RPMI-1640+5˜10% FBS • Esophageal cancer KYSE-70 cells—RPMI-1640+10% h.i.FBS. • Pharyngeal cancer FaDu cells—MEM+0.01 mM NEAA+10% FBS
(§2) Cell colony formation was tested using a 3D methylcellulose-based CellTiter-Glo (CTG) viability assay (Cat. No: G7573, Promega). Briefly, cells were inoculated into 96-well plates (at 1,500 cells per well) into a solution of 0.65% methylcellulose in growth media and incubated overnight at 37° C. in 5% CO2. The next day, serially diluted test compound (islatravir) or positive control (cisplatin, Cat. No. 6J015A89, Qilu Pharma) were added at the indicated concentrations, and the cells were incubated for 7 days. On day seven, 100 μL of CTG reagent was added, and the plates were incubated at room temperature for 20 min. Luminescence was read on an Envision Multi Label Reader according to manufacturer's instructions. IC50 values were determined using the following calculation: […]
(In general: Cellular ATP, detected with luciferase, serves as a proxy for viable cell number.)

The subject of experiment [1] is THP1-Dual™ KO-TREX1 cells. Kind of experiment: CellTiter-Glo cell viability in THP1 TREX1 KO cells. The conditions noted are these: Homo sapiens, 120 h, in the presence of 1 μM 5-aza-2′-deoxycytidine, five days, read-out: CellTiter-Glo inhibition IC50. On the procedure:
(§3) THP1-Dual™ KO-TREX1 cells were purchased from Invivogen (cat #thpd-kotrex). The THP1-Dual™ KO-TREX1 cells were cultured in RPMI 1640, 10% heat-inactivated fetal bovine serum, 25 mM HEPES, 10 μg/mL Blasticidin, and 100 μg/mL Zeocin. THP1-Dual™ KO-TREX1 cells were treated with a dose titration of test compound in the presence of 1 μM 5-aza-2′-deoxycytidine (Sigma, cat #189825). Type 1 Interferon and cell viability were assessed after five days of treatment.
(§4) Stock solution of test compound was prepared in DMSO followed by a three-fold dilution in DMSO. Additional 50× dilution was prepared in cell culture media for each dilution. 10 μL of diluted test compound was then added to a 384-well plate.
THP1-Dual™ KO-TREX1 cells were treated with 1 μM 5-aza-2′-deoxycytidine. THP1-Dual™ KO-TREX1 cells (50 μL) were added to each well of the 384-well plate containing test compound titration at 10,000 cells/well. Cells were incubated at 37° C., 5% CO2 in a humidified incubator for five days. […] Luminescence was detected on a plate reader according to manufacturer's instructions. […]
The remaining cells were assessed for cell viability by adding 30 μl of CellTiter-Glo (Promega, G9683) solution to each well, and placed on a shaker for 10 minutes at room temperature. Luminescence was detected on a plate reader, according to manufacturer's instructions. […]

In another experiment the test system is SW756 cells. The experiment in a line: Cancer cell viability assay with 3D cell colonies (CellTiter-Glo), SW756. The conditions noted are these: Homo sapiens, SW756, 168 h, 7 days. The protocol:
as §1, §2

The subject of the next experiment is OVCAR-8 cells. Kind of experiment: Cancer cell viability assay with 3D cell colonies (CellTiter-Glo), OVCAR-8. The conditions noted are these: Homo sapiens, OVCAR-8, 168 h; 3D tumorsphere growth, 7 days. The protocol: as §1, §2
The test system of a further experiment is KYSE-410 cells. The experiment in a line: Cancer cell viability assay with 3D cell colonies (CellTiter-Glo), KYSE-410. The conditions noted are these: Homo sapiens, KYSE-410, 168 h, 7 days. The protocol: as §1, §2
A further experiment relates to SK-OV-3 cells. The experiment in a line: Cancer cell viability assay with 3D cell colonies (CellTiter-Glo), SK-OV-3. The following applies: Homo sapiens, SK-OV-3, 168 h; 3D tumorsphere growth, 7 days. The protocol:
as §1, §2

For experiment [2], the system named is THP1-Dual™ KO-TREX1 cells. The experiment in a line: Cellular assay for altering IFN production in THP1 TREX1 KO cells. The following applies: in the presence of 1 μM 5-aza-2′-deoxycytidine, five days. On the procedure:
as §3, §4
THP1-Dual™ KO-TREX1 cells were treated with 1 μM 5-aza-2′-deoxycytidine. THP1-Dual™ KO-TREX1 cells (50 μL) were added to each well of the 384-well plate containing test compound titration at 10,000 cells/well. Cells were incubated at 37° C., 5% CO2 in a humidified incubator for five days. On day five, 20 μL of cell supernatant was transferred to a 384-well, white-walled plate, followed by addition to each well of 50 μL of QUANTI-LUC solution containing stabilizer. Luminescence was detected on a plate reader according to manufacturer's instructions. […]

In experiment [3] the target is T1, LINE1 reverse transcriptase (Homo sapiens, UniProt O00370).
T1 construct: expressed in transfected cells
T1 sequence (O00370 whole entry, looked up): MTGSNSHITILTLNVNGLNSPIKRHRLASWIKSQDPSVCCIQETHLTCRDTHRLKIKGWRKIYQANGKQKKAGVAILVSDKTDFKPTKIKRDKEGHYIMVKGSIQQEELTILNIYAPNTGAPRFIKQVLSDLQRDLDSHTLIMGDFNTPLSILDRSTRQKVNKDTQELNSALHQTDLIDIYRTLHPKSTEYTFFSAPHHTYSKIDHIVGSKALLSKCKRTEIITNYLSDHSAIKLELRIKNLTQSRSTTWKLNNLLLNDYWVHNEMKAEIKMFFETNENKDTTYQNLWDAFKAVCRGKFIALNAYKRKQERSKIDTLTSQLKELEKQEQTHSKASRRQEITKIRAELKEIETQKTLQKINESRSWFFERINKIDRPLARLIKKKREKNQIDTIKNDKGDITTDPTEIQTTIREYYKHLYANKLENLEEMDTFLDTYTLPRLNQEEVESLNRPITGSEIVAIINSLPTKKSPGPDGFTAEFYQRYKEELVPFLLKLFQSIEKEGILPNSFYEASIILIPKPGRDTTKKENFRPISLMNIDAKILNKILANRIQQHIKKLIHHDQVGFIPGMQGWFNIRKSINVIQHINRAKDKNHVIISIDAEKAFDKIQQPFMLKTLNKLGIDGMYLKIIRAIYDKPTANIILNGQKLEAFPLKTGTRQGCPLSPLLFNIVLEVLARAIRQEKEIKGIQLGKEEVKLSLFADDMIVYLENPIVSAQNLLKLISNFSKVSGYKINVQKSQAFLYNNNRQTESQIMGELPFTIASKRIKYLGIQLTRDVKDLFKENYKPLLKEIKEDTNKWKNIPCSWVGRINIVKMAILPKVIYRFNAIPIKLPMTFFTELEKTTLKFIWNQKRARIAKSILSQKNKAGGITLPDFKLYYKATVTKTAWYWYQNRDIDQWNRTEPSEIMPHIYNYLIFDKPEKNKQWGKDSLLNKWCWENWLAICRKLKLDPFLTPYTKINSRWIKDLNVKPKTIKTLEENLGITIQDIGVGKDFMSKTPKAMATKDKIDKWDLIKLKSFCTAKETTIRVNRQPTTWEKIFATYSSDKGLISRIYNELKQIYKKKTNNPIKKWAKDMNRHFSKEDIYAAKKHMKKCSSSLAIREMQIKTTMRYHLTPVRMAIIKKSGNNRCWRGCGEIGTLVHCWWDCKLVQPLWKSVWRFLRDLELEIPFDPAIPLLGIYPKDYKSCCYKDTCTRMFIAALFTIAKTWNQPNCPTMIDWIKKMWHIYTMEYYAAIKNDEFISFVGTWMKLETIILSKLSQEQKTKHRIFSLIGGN
Kind of experiment: Transient artificial-intron Cis LINE1 reporter assay. The following applies: HEK 293 cells, FLuc/RLuc ratio, read-out: IC50 for inhibition of FLuc luminescence. On the procedure:
Intron-disrupted Firefly luciferase (FLuc) expression cassettes were generated as described by Xie, Y. et al. “Characterization of L1 retrotransposition with high-throughput dual-luciferase assays,” Nucleic Acid Res. (2011) Vol. 39, No. 3, e16. In addition, the plasmid contained an intact Renilla luciferase (RLuc) expression cassette on the vector backbone, in order to normalize transfection efficiency and measure potential cell toxicity.
HEK 293 cells were seeded in 96-well plates at 1,000 cells/well in 55 μL and grown for 24 hours. Cells were transfected with FuGeneHD (Promega) following the manufacturer's protocol. Each well received 0.133 ng plasmid, 0.4 μL FuGeneHD reagent, and 4.5 μL GlutaMAX-I-supplemented Opti-MEM I reduced-serum medium (Invitrogen). Cells were simultaneously treated with test compound serially diluted starting at 100 μM in a 3-fold dilution dose response.
Luminescence was measured using the Dual-Glo Luciferase Assay System (Promega) following the manufacturer's instructions. The ratio between FLuc and RLuc gene expression was used to report LINE1 activity.

Structures are written as SMILES. Bounds are passed on as bounds.

Broadly, the IC50 is the concentration at which inhibition is half-maximal. Take `C#C[C@]1(CO)O[C@@H](n2cnc3c(N)nc(F)nc32)C[C@@H]1O` [Islatravir, (2R,3S,5R)-5-(6-amino-2-fluoro-9H-purin-9-yl)-2-ethynyl-2-(hydroxymethyl)tetrahydrofuran-3-ol]: the IC50 is at most 10 µM with TE-1 cells; over 20 µM in experiment [1]; over 30 µM with SW756 cells; 1.95 µM with OVCAR-8 cells; over 30 µM with KYSE-410 cells; 6.54 µM in the experiment on SK-OV-3 cells. Besides, in experiment [3], the IC50 stood at 20 nM. In experiment [2], the “changes in IFN levels (% induction)” value is given as “induction of IFN”.
